Reference: the NIST ThermoML archive (doi:10.1016/j.fluid.2013.07.054)
Numbers after ± are expanded uncertainties.

Details: 298.15 K; 101 kPa; Liquid; Vibrating tube method

Compound | mass density [kg/m3]
CCC(C)=O [butanone] | 800.3 ± 0.11
CC(=O)C(C)C [3-methyl-2-butanone] | 800.63 ± 0.11
CC(=O)CC(C)C [4-methylpentan-2-one] | 796.23 ± 0.11
